Laboratory results: BindingDB's records for doi:10.1016/0960-894X(95)00199-4 (1995)

Key:
[1] = Compound was evaluated for the inhibition of platelet aggregation, assessed turbidimetrically in citreated human platelet rich plasma (PRP)
Thromboxane A2 receptor = molecular target: T1, Thromboxane A2 receptor (Homo sapiens, UniProt P21731); experiment: Compound was evaluated for the inhibition of platelet aggregation, assessed turbidimetrically in citreated human platelet rich plasma (PRP)
T1 sequence (P21731 whole entry): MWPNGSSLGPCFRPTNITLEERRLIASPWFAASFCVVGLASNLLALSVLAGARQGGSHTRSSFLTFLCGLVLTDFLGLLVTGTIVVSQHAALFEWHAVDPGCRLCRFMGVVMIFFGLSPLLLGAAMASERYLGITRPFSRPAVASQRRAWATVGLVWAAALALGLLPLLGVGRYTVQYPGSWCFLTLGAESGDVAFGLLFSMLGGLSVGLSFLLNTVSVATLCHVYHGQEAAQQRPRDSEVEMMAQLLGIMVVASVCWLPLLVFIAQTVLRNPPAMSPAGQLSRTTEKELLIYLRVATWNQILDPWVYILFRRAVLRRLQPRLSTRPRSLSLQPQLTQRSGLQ

O=C(O)CC/C=C\CC1=CCC[C@@H]1NS(=O)(=O)c1ccc(Cl)cc1
IC50 [1]: 1.9 µM

O=C(O)CCC/C=C\CC1=CCC[C@@H]1CNS(=O)(=O)c1ccc(F)cc1
IC50 [1]: 1.7 µM

O=C(O)COCCCC[C@H]1[C@H](F)CC[C@@H]1NS(=O)(=O)c1ccc(F)cc1
IC50 [1]: 1.8 µM

O=C(O)CCC/C=C\C[C@H]1[C@H](F)CC[C@@H]1NS(=O)(=O)c1ccc2ccccc2c1
IC50 [1]: 0.2 µM

O=C(O)CC/C=C\C[C@@H]1[C@@H](CNS(=O)(=O)c2ccc(Cl)cc2)CC[C@H]1F
IC50 [1]: 1.8 µM

O=C(O)CCC/C=C\C[C@H]1[C@H](F)CC[C@@H]1NS(=O)(=O)c1ccc(F)cc1F
IC50 [1]: 0.2 µM

O=C(O)CC/C=C\C[C@H]1[C@H](F)CC[C@@H]1NS(=O)(=O)c1ccccc1
IC50 [1]: 2 µM

O=C(O)COCCCCC1=CCC[C@@H]1NS(=O)(=O)c1ccc(Cl)c(Cl)c1
IC50 [1]: 1.9 µM

O=C(O)CCC/C=C\C[C@H]1[C@H](F)CC[C@@H]1NS(=O)(=O)c1ccccc1[N+](=O)[O-]
IC50 [1]: 1.8 µM

O=C(O)CCC/C=C\C[C@H]1[C@H](F)CC[C@@H]1NS(=O)(=O)c1ccc(Cl)c(Cl)c1
IC50 [1]: 0.63 µM

O=C(O)CCCCCC[C@@H]1[C@@H](CNS(=O)(=O)c2ccc(F)cc2)CC[C@H]1F
IC50 [1]: 6 µM

O=C(O)CCC/C=C\CC1=CCC[C@@H]1NS(=O)(=O)c1ccc(F)cc1
IC50 [1]: 4.4 µM

O=C(O)CC/C=C\C[C@H]1[C@H](F)CC[C@@H]1NS(=O)(=O)c1ccc(Cl)cc1
IC50 [1]: 0.21 µM

O=C(O)CCC/C=C\CC1=CCC[C@@H]1NS(=O)(=O)c1cccc2cccnc12
IC50 [1]: 2 µM

O=C(O)CCCCC[C@@H]1[C@@H](CNS(=O)(=O)c2ccc(F)cc2)CC[C@H]1F
IC50 [1]: 4.7 µM

O=C(O)CCC/C=C\CC1=CCC[C@@H]1NS(=O)(=O)c1ccccc1
IC50 [1]: 2.3 µM

O=C(O)CCC/C=C\C[C@H]1[C@H](F)CC[C@@H]1NS(=O)(=O)c1ccc(Cl)cc1
IC50 [1]: 0.07 µM

O=C(O)COCCCC[C@H]1[C@H](F)CC[C@@H]1NS(=O)(=O)c1ccccc1[N+](=O)[O-]
IC50 [1]: 5.5 µM

O=C(O)COCCCC[C@H]1[C@H](F)CC[C@@H]1NS(=O)(=O)c1ccc(F)cc1F
IC50 [1]: 1.8 µM

O=C(O)CC/C=C/C[C@H]1[C@H](F)CC[C@@H]1NS(=O)(=O)c1ccc(F)cc1F
IC50 [1]: 1.6 µM

O=C(O)CCC/C=C\C[C@H]1[C@H](F)CC[C@@H]1NS(=O)(=O)C1=C2N=CC=CC2CC=C1 (stereo partly drawn)
IC50 (Thromboxane A2 receptor): 2 µM

O=C(O)COCCCCC1=CCC[C@@H]1NS(=O)(=O)c1ccc(F)cc1
IC50 [1]: 2 µM

O=C(O)CC/C=C\CC1=CCC[C@@H]1CNS(=O)(=O)c1ccc(F)cc1
IC50 [1]: 0.6 µM

O=C(O)CC/C=C\C[C@@H]1[C@@H](CNS(=O)(=O)c2ccc(F)cc2)CC[C@H]1F
IC50 (Thromboxane A2 receptor): 1.9 µM

O=C(O)CC/C=C\CC1=CCC[C@@H]1NS(=O)(=O)c1ccccc1[N+](=O)[O-]
IC50 [1]: 0.6 µM

O=C(O)COCCCCC1=CCC[C@@H]1NS(=O)(=O)c1ccc(F)cc1F
IC50 [1]: 1.8 µM

Cc1ccc(S(=O)(=O)N[C@H]2CCC=C2CCCCOCC(=O)O)cc1
IC50 [1]: 1.9 µM

O=C(O)CCCCCC[C@H]1[C@H](F)CC[C@@H]1NS(=O)(=O)c1ccc(F)cc1
IC50 [1]: 2.4 µM

O=C(O)CC/C=C\C[C@@H]1[C@@H](CNS(=O)(=O)c2ccc(F)cc2)CC[C@@H]1F
IC50 [1]: 0.65 µM

O=C(O)CCC/C=C\C[C@H]1[C@H](F)CC[C@@H]1NS(=O)(=O)c1ccccc1
IC50 [1]: 1.1 µM

O=C(O)CC/C=C\CC1=CCC[C@@H]1NS(=O)(=O)c1ccc(F)cc1F
IC50 [1]: 20 µM

O=C(O)CCC/C=C\C[C@H]1[C@H](F)CC[C@@H]1NS(=O)(=O)c1ccc(F)cc1
IC50 (Thromboxane A2 receptor): 0.54 µM

O=C(O)COCCCCC1=CCC[C@@H]1NS(=O)(=O)c1ccccc1[N+](=O)[O-]
IC50 [1]: 1.9 µM

O=C(O)CC/C=C\CC1=CCC[C@@H]1NS(=O)(=O)c1ccc(Cl)c(Cl)c1
IC50 [1]: 1.9 µM

O=C(O)COCCCCC1=CCC[C@@H]1NS(=O)(=O)c1ccccc1
IC50 [1]: 2 µM

O=C(O)CC/C=C\CC1=CCC[C@@H]1NS(=O)(=O)c1ccc(F)cc1
IC50 [1]: 1.3 µM

O=C(O)CC/C=C\C[C@H]1[C@H](F)CC[C@@H]1NS(=O)(=O)c1ccc(Cl)c(Cl)c1
IC50 [1]: 1.7 µM

O=C(O)CC/C=C\C[C@H]1[C@H](F)CC[C@@H]1NS(=O)(=O)c1ccccc1[N+](=O)[O-]
IC50 [1]: 0.56 µM

O=C(O)CC/C=C\C[C@H]1[C@H](F)CC[C@@H]1NS(=O)(=O)c1ccc(F)cc1
IC50 [1]: 0.75 µM

O=C(O)COCCCCC1=CCC[C@@H]1CNS(=O)(=O)c1ccc(F)cc1
IC50 [1]: 0.2 µM

O=C(O)CCC/C=C\CC1=CCC[C@@H]1NS(=O)(=O)c1ccccc1[N+](=O)[O-]
IC50 [1]: 0.68 µM

Cc1ccc(S(=O)(=O)N[C@H]2CC[C@@H](F)[C@@H]2C/C=C\CCCC(=O)O)cc1
IC50 [1]: 0.26 µM

Cc1ccc(S(=O)(=O)N[C@H]2CC[C@@H](F)[C@@H]2C/C=C\CCC(=O)O)cc1
IC50 [1]: 1.9 µM

Cc1ccc(S(=O)(=O)NC[C@H]2CC[C@@H](F)[C@@H]2C/C=C\CCC(=O)O)cc1
IC50 [1]: 1.9 µM

O=C(O)CCC/C=C\CC1=CCC[C@@H]1NS(=O)(=O)c1ccc2ccccc2c1
IC50 [1]: 1.9 µM

O=C(O)CCCCCCC1=CCC[C@@H]1NS(=O)(=O)c1ccc(F)cc1
IC50 [1]: 0.62 µM

O=C(O)COCCCC[C@H]1[C@H](F)CC[C@@H]1NS(=O)(=O)c1ccccc1
IC50 [1]: 1.7 µM

O=C(O)CC/C=C\CC1=CCC[C@@H]1NS(=O)(=O)c1ccccc1
IC50 [1]: 2.2 µM

Cc1ccc(S(=O)(=O)N[C@H]2CCC=C2C/C=C\CCCC(=O)O)cc1
IC50 [1]: 0.25 µM

O=C(O)COCCCC[C@@H]1[C@@H](CNS(=O)(=O)c2ccc(F)cc2)CC[C@H]1F
IC50 [1]: 0.65 µM

O=C(O)CCC/C=C\C[C@@H]1[C@@H](CNS(=O)(=O)c2ccc(F)cc2)CC[C@H]1F
IC50 [1]: 2 µM

Cc1ccc(S(=O)(=O)N[C@H]2CC[C@@H](F)[C@@H]2CCCCOCC(=O)O)cc1
IC50 [1]: 1.8 µM

Cc1ccc(S(=O)(=O)N[C@H]2CCC=C2C/C=C\CCC(=O)O)cc1
IC50 [1]: 1.8 µM
